biological target: T1, USP19 (Homo sapiens, UniProt O94966); test: USP19 fluorescence polarisation (FP) homogeneous assay; assay type: biochemical; set-up: Full-length USP19 was purchased from Boston Biochem (E-576); purchased Boston Biochem E-576; settings: Ubiquitin-Lys-TAMRA substrate, full-length USP19 2.5 nM, average of at least two duplicate experiments
T1 sequence (O94966 1-1318): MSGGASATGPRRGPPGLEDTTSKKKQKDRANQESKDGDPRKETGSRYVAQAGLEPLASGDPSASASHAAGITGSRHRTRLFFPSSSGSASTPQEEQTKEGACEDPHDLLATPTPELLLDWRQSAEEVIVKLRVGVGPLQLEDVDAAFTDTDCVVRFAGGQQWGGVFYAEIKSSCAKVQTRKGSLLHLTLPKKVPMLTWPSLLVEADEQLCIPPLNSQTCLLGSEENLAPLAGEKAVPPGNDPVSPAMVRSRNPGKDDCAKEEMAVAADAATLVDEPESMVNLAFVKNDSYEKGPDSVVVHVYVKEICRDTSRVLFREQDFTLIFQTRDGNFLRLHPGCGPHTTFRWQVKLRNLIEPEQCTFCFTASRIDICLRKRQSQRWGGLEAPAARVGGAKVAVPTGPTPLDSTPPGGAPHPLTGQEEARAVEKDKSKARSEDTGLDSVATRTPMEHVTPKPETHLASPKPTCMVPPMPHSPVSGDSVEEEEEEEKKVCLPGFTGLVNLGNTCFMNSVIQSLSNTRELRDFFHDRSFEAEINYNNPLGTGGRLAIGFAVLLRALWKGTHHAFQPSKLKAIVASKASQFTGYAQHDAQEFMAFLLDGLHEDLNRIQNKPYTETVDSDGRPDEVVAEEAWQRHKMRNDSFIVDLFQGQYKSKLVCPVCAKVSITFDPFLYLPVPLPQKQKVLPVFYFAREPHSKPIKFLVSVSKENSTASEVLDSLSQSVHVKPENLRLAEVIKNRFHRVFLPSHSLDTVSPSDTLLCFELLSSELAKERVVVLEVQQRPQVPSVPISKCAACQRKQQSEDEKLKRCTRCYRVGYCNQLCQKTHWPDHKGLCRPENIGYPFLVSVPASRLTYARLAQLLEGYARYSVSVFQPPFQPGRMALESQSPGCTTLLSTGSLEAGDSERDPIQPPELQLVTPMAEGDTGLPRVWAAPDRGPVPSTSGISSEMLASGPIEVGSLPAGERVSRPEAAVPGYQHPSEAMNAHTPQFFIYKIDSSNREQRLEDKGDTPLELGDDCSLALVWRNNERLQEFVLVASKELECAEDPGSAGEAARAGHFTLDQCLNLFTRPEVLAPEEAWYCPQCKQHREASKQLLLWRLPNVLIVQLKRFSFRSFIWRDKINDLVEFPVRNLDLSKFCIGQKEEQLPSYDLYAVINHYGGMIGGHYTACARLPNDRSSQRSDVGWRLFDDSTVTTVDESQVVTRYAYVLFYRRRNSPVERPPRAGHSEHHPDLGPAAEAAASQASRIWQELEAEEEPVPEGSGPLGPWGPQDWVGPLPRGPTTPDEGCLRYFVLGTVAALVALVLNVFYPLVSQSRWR
Procedure, shortened: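 Inhibitors serially diluted in buffer (200 μM to 2 μM, 8-18 points) and preincubated 30 min at RT before starting with 500 nM Ub substrate.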

Compound	IC50
O=C(c1cn(C[C@]2(O)CCN(C(=O)[C@H](CO)CC(F)(F)F)CC23CCCC3)c(=O)cc1-c1ccccc1)N1CCNCC1 [Example 249, 1-(((S)-10-Hydroxy-7-((S)-4,4,4-trifluoro-2-(hydroxymethyl)butanoyl)-7-azaspiro[4.5]decan-10-yl)methyl)-4-phenyl-5-(piperazine-1-carbonyl)pyridin-2(1H)-one]	< 500 nM
C[C@H](CC(F)(F)F)C(=O)N1CC[C@@](O)(Cn2cc(C(=O)N3CCOCC3)c(-c3ccccc3)cc2=O)C2(CCCC2)C1 [Example 250, 1-(((S)-10-Hydroxy-7-((R)-4,4,4-trifluoro-2-methylbutanoyl)-7-azaspiro[4.5]decan-10-yl)methyl)-5-(morpholine-4-carbonyl)-4-phenylpyridin-2(1H)-one]	< 500 nM
C[C@H](CC(F)(F)F)C(=O)N1CC[C@@](O)(Cn2cc(C(=O)N3CCN(C)CC3)c(-c3ccccc3)cc2=O)C2(CCCC2)C1 [Example 251, 1-(((S)-10-Hydroxy-7-((R)-4,4,4-trifluoro-2-methylbutanoyl)-7-azaspiro[4.5]decan-10-yl)methyl)-5-(4-methylpiperazine-1-carbonyl)-4-phenylpyridin-2(1 H)-one]	< 500 nM
CCOC(=O)c1cn(C[C@]2(O)CCN(C(=O)[C@H](C)CC3CCCCC3)CC23CCCC3)c(=O)cc1-c1ccccc1 [Example 252, Ethyl 1-(((S)-7-((R)-3-cyclohexyl-2-methylpropanoyl)-10-hydroxy-7-azaspiro[4.5]decan-10-yl)methyl)-6-oxo-4-phenyl-1,6-dihydropyridine-3-carboxylate]	< 500 nM

Continued, values first:

IC50	Compound
< 500 nM	C[C@H](CC1CCCCC1)C(=O)N1CCC(O)(Cn2cc(C(=O)N(C)C)c(-c3ccccc3)cc2=O)C2(CCCCC2)C1 (stereo partly drawn) [Example 237, 1-((2-((R)-3-Cyclohexyl-2-methylpropanoyl)-5-hydroxy-2-azaspiro[5.5]undecan-5-yl)methyl)-N,N-dimethyl-6-oxo-4-phenyl-1,6-dihydropyridine-3-carboxamide]
< 500 nM	C[C@H](CC1CCCCC1)C(=O)N1CCC(O)(Cn2cc(C(=O)N3CCNCC3)c(-c3ccccc3)cc2=O)C2(CCCCC2)C1 (stereo partly drawn) [Example 238, 1-((2-((R)-3-Cyclohexyl-2-methylpropanoyl)-5-hydroxy-2-azaspiro[5.5]undecan-5-yl)methyl)-4-phenyl-5-(piperazine-1-carbonyl)pyridin-2(1H)-one]
< 500 nM	C[C@H](CC1CCCCC1)C(=O)N1CC[C@@](O)(Cn2cc(C(=O)N3CCOCC3)c(-c3ccccc3)cc2=O)C2(CCCC2)C1 [Example 239, 1-(((S)-7-((R)-3-Cyclohexyl-2-methylpropanoyl)-10-hydroxy-7-azaspiro[4.5]decan-10-yl)methyl)-5-(morpholine-4-carbonyl)-4-phenylpyridin-2(1H)-one]
< 500 nM	C[C@H](CC1CCCCC1)C(=O)N1CC[C@@](O)(Cn2cc(C(=O)N3CCN(C)CC3)c(-c3ccccc3)cc2=O)C2(CCCC2)C1 [Example 240, 1-(((S)-7-((R)-3-Cyclohexyl-2-methylpropanoyl)-10-hydroxy-7-azaspiro[4.5]decan-10-yl)methyl)-5-(4-methylpiperazine-1-carbonyl)-4-phenylpyridin-2(1 H)-one]
< 500 nM	CN(C)C(=O)c1cn(C[C@]2(O)CCN(C(=O)[C@H](CO)CC(F)(F)F)CC23CCCC3)c(=O)cc1-c1ccccc1 [Example 247, 1-(((S)-10-Hydroxy-7-((S)-4,4,4-trifluoro-2-(hydroxymethyl)butanoyl)-7-azaspiro[4.5]decan-10-yl)methyl)-N,N-dimethyl-6-oxo-4-phenyl-1,6-dihydropyridine-3-carboxamide]
< 500 nM	O=C(c1cn(C[C@]2(O)CCN(C(=O)[C@H](CO)CC(F)(F)F)CC23CCCC3)c(=O)cc1-c1ccccc1)N1CCOCC1 [Example 248, 1-(((S)-10-Hydroxy-7-((S)-4,4,4-trifluoro-2-(hydroxymethyl)butanoyl)-7-azaspiro[4.5]decan-10-yl)methyl)-5-(morpholine-4-carbonyl)-4-phenylpyridin-2(1H)-one]

From US20220016115A1, “USP19 INHIBITORS FOR USE IN THERAPY” (ALMAC DISCOVERY LIMITED, priority 2018, published 2022)
